According to publication PMC6360136 (Investigational new drugs, 2018):
Where a name gives a salt, the structure may show the parent alone.

Columns and labels:
colon cancer xenograft = colon cancer xenograft mice model, 0.25 mg/kg daily dosing ref 18, 19; cited from earlier work
EC68 cells = experiment: Cell viability assay; assay type: cell-based, human; details: Homo sapiens, Pancreatic cancer cell, 48 h
EC46 cells = experiment: Cell viability assay; assay type: cell-based, human; details: Homo sapiens, Pancreatic cancer cell, 48 h
PANC-1 cells = experiment: Cell viability assay; assay type: cell-based, human; details: Homo sapiens, PANC-1, 48 h

| IC50 (PANC-1 cells) [µM] | SMILES | tumor growth (colon cancer xenograft) | IC50 (EC68 cells) [µM] | IC50 (EC46 cells) [µM] |
| --- | --- | --- | --- | --- |
| – | CC[C@H](C)[C@H]1C(=O)N2CCC[C@@H]2C(=O)O[C@H](C(C)(C)C)C[C@@H](C)C[C@H](O)C(C)(C)C2=N[C@@H](CCC(=O)N[C@@H](Cc3ccc(OC)cc3)C(=O)N(C)[C@@H](C)C(=O)N1C)CS2 [Apratoxin S8, apratoxin S8] | significantly retarded tumor growth | – | – |
| 13.1 | C#Cc1cccc(Nc2ncnc3cc(OCCOC)c(OCCOC)cc23)c1 [erlotinib hydrochloride, reference compound] | – | 8.96 | 2.41 |
